Results reported in US9623262B2, “Methods and systems for determining the distribution of radiation dose and response” (priority 2013, dated 2017).

What was measured:
[1] = system: V79 cells; assay: Clonogenic survival assay after single-agent treatment
Method: The surviving fraction SF of cells exposed to the agent was assessed with a clonogenic survival assay and plotted as a function of several different variables including extracellular concentration, <I>net, absorbed dose (Gy), and mean cellular activity (mBq/cell). […] Analogous to the cellular activity and absorbed dose required to achieve 37% survival, a37 and D37, the net mean lethal fluorescence intensity of the drug required to achieve 37% survival, <I>net,37, can be defined similarly and obtained from plots of SF versus <I>net.
A is the intracellular activity of ^210Po-citrate, absorbed dose to the cell nucleus, or drug concentration. Least squares fits of the survival data to this function were performed. The variable b is a fitted parameter.
Cells grown in 225-cm^2 flasks were trypsinized (0.25% trypsin, Gibco, catalog no. 25200-056), and MEMB was added to obtain 2×10^6 cells/mL. Aliquots of 1 mL were placed in Falcon 17×100 mm polypropylene tubes (BD, catalog no. 352018) and placed on a rocker-roller (Thermo Fisher, Fair Lawn, N.J.) for 3 hours at 37° C. with 5% CO2 and 95% air. After this conditioning period, cells were treated with drug or radiochemical. Cell cultures were exposed to radiochemical and drugs for 0.5 and 2.5 h, respectively.
One milliliter of MEMB containing ^210Po-citrate was added to the 1 mL of conditioned V79 cultures (2×10^6 cells/mL), to arrive at a concentration of 0-250 kBq/mL (pH 6.9-7.0). After incubating for 30 min, the cells were washed 2× with MEMB, resuspended in 2 mL of MEMB, and incubated on a rocker-roller for 2.5 h to simulate concomitant drug exposure. The cells were resuspended in a 5 mL of MEMB, passed 5× through a needle, and counted with a Beckman Coulter Model Z2 (Brea, Calif.). Aliquots (500 μL) of the cell suspension were transferred to vials, mixed with 5 mL Ecolume (MP Biomedical, Solon, Ohio, catalog no. 882470), and counted with a Beckman Coulter LS6500, and the mean activity per cell was determined (efficiency, 50% as per prior studies). Aliquots of about 5×10^5 cells were counted in triplicate for ^210Po activity and the cpm ranged from 10^3-10^5. The triplicate measurements kept statistical variations to a minimum. Each sample was serially diluted and plated in Falcon 60×15 mm tissue culture dishes for colony formation. Cultures were incubated for 7 days, and the colonies were fixed in 95% ethanol, stained with 0.01% Amido Black, washed in tap-water, air-dried, and counted.
After conditioning, the cell cultures were treated with daunomycin (Sigma, catalog no. D8809) or doxorubicin (Sigma, catalog no. 44583) to a final concentration of 0-10 μmol/L in MEMB. The tubes were returned to the rocker-roller for 2.5 h. The cells were then processed for colony formation as described above.

[2] = system: V79 cells; assay: Clonogenic survival after combined treatment with 210Po-citrate and drug (cocktails); assay type: cell-based, Chinese hamster; details: for dose dependence of the enhancement of α-particle radiotoxicity: 0.63 μM daunomycin or 2.50 μM doxorubicin with graded 210Po-citrate; for effect of drug on radiotoxicity of 210Po-citrate: concomitant treatment, survival corrected for drug toxicity
Excerpt: To evaluate cytotoxicity of combined treatment of V79 cells with ^210Po-citrate and daunomycin, or ^210Po-citrate and doxorubicin, the surviving fraction of clonogens was plotted as a function of mean cellular uptake of ^210Po (FIG. 9) and as a function of mean absorbed dose to the cell nucleus. When cells were only treated with ^210Po-citrate, the survival curve can be described by a 1-component exponential function. When cells were concomitantly treated with a single drug concentration and varying amounts of ^210Po-citrate, the dose-response curves followed a 2-component exponential function. The data corresponding to the combined treatments were then corrected for drug toxicity, by dividing the surviving fraction for each datum point by the surviving fraction for drug alone (SF=0.10), and replotted in FIG. 9. Both of the corrected cell survival curves emerged below those obtained for ^210Po-citrate alone.

^210Po-citrate was tested. Which “cellular uptake of 210Po at the mean lethal dose” value ([1]; 37% survival) did it give?
Its value is 0.21 mBq/cell.

And the “atoms of 210Po per cell at the mean lethal dose” value ([1]; corresponds to 0.21 mBq/cell)?
Its value is “about 3600 atoms”.

With COc1cccc2c1C(=O)c1c(O)c3c(c(O)c1C2=O)C[C@@](O)(C(=O)CO)C[C@@H]3O[C@H]1C[C@H](N)[C@H](O)[C@H](C)O1 [doxorubicin] as the molecule, how does the “dose dependence of the enhancement of α-particle radiotoxicity” value [2] read?
The value was “dose-dependent increase”.

What about the “effect of drug on radiotoxicity of 210Po-citrate” value [2] of the same molecule?
Its value is “enhance the radiotoxicity of α-particles”.

How did the “relative cytotoxicity based on extracellular drug concentration” value ([1]; V79 cell cultures) turn out when COc1cccc2c1C(=O)c1c(O)c3c(c(O)c1C2=O)C[C@@](O)(C(C)=O)C[C@@H]3O[C@H]1C[C@H](N)[C@H](O)[C@H](C)O1 [daunomycin] was run?
The value was “more cytotoxic than doxorubicin”.

And the “lethality of daunomycin relative to doxorubicin” value ([1]; low extracellular concentrations, V79 cells)?
Its value is ~5 ×.

What about the “dose dependence of the enhancement of α-particle radiotoxicity” value [2] of the same molecule?
Its value is “independent of radiation absorbed dose beyond about 0.5 Gy”.

And the “effect of drug on radiotoxicity of 210Po-citrate” value [2]?
Its value is “enhance the radiotoxicity of α-particles”.
